The record followed here is US20250145946A1, “GENERATION OF PURE RETINAL CELLS FROM HUMAN PLURIPOTENT STEM CELLS” (Wisconsin Alumni Research Foundation, priority 2023, published 2025).

Experiment [1] relates to H9 human embryonic stem cells (hESCs). Briefly: qPCR analysis of neural and retinal gene expression during hPSC neural/retina differentiation. In kind it is cell-based. The protocol:
hPSCs (H9, IMR-90-4 and WC30) were maintained under E8/feeder-free culture condition and passaged at 1:20 ratio with Rock inhibitor. After each new passage, the cells were fed with E8 medium for another 1˜2 days to reach 30-40% confluence. To initiate retina differentiation, culture medium was replaced with Retina Induction Medium (RIM) containing Neural induction medium (NIM) comprising DMEM/F12 media containing 1% N2 and 1× nonessential amino acids (NEAA) supplemented with 10 μM SB431542 (TGF inhibitor, Stemgent, 04-0010-10); this new passage day was counted as day 0 (DO) of retina differentiation. Cells were then fed daily with RIM, or every other day based on the cell density. On day 4, the cells were dissociated by ReLeSR (STEM CELL) or EDTA and re-suspended in the fresh RIM containing 0.5 micromolar (μM) Rock inhibitor. Cell clusters were thereafter transferred to a cell culture flask and cultured in suspension. On day 5, the resulting cell spheres were fed with RIM without SB431542. […] At day 20, the spheres were cultured in Transition medium (DMEM/F12: Neurobasal (1:1) with 1% N2, 2% B27, 1×NEAA and 1×Glutamax) until analysis.
Total RNA was isolated with the RNeasy Plus Mini Kit according to the manufacturer's instructions. For quantitative PCR (qPCR), cDNA was synthesized using PrimeScript RT Reagent Kit (Takara). qPCR was performed using iTaq Universal SYBR Green Supermix (Bio-Rad). GAPDH gene was used as an internal control to equalize cDNA.
H9 human embryonic stem cells (hESCs) were differentiated to neuroepithelia by culture in chemically defined media as disclosed above and then treated with inhibitors against BMP (DMH1), TGF-beta (SB-431542, SB), or WNT (IWR1) pathways separately for 6 days during the neural induction process (FIG. 2a).
Because SOX1 expression was known to be absent in retinal progenitors (also shown in FIG. 7a), expression of SOX2 and SOX1 presented a simple determining marker for cortical vs. retinal progenitors.
A general note: In qPCR the cycle at which signal appears reflects the starting amount.

Experiment [2] deals with hPSCs. Briefly: Single nucleus RNA-seq (snRNA-Seq) profiling of differentiating cells. In kind it is cell-based, human. The conditions noted are these: day 12.
Description: Differentiating cells at multiple time points (day 0-day 12) indicated below were digested and collected for nucleus isolation and library construction (Tao et al., 2024, Nat. Biotech. 12:1404-1416; https://doi.org/10.1038/s41587-023-01977-4). All libraries prepared in this way were processed by NovaSeq. Alignment of raw sequencing reads, and generation of feature barcode matrices were performed using Cellranger (7.1.0). Seurat (4.1.3) was used to process feature barcode matrices and analyze snRNA-Seq data32. All samples were processed under standard quality control metrics. Single cells with more than 300 unique genes (nFeature) and less than 15% or 20% mitochondrial gene reads (percent.mt) were selected for follow-up analysis. Additional procedures were used to exclude low quality cells and doublets in each sample (nFeature<6,000 and nCount<20,000). […] After quality control, all snRNA-Seq data were normalized using the SCTransform (v2) function in Seurat with mitochondria genes regressed out (Choudhary, S. et al., 2022, Genome Biol 23, 27). PCA and UMAP reduction, gene feature plots were done by using Seurat as well.
Single nucleus RNA-seq (snRNA-Seq) assays were performed to profile and compare the differentiating cells under the SB or SB+DMH1 conditions (FIG. 2d). On day 6, after filtering low quality and dead cells, 8,533 and 9,756 cells in the SB and SB+DMH1 groups were collected, respectively. Uniform manifold approximation and projection (UMAP) clustering identified 11 clusters in both conditions (FIG. 2e).
To verify this observation, cells were differentiated with only SB for the first 6 days to generate primitive neuroepithelial cells and then how the BMP pathway regulated retinal differentiation was investigated by treating the cells with or without DMH1 at day 6 (FIG. 2d). Cell nuclei were collected on day 12 for snRNA-Seq to compare differentiating cells in the control (medium without inhibitors) and under DMH1 conditions. […] UMAP clustering identified 13 clusters (FIGS. 2h-2j, FIG. 10a).
The test system of experiment [3] is H9 human embryonic stem cells (hESCs). Briefly: Flow cytometry of differentiating cells for SOX2, SOX1 and PAX6. In kind it is cell-based. The conditions noted are these: day 12; FIG. 8a. The procedure:
Flow cytometry was performed following manufacturer's instruction using Transcription Factor Buffer Set which is designed for transcription factor staining. Briefly, single cells were prepared using TrypLE Express Enzyme and fixed in the fixation buffer provided in the kit at 2-8° C. for 45 min. After 3 washings with the permeable buffer, the primary antibodies were added to cells for 45 min at 2-8° C. in a light-tight box. The cells were washed 3 times before incubation with fluorescently conjugated secondary antibodies for 45 mins at 2-8° C. in a light-tight box. After 3 times of washing, cells were suspended in the washing buffer and analyzed by flow cytometry (BD LSR or BD LSRII). Data analysis was performed using FlowJo. Antibodies used were: SOX2 (R&D Systems AF2018), SOX1 (R&D Systems AF3369), PAX6 Alexa Fluor 488 (BD Biosciences Cat #561664), SOX2-V450 (BD Biosciences Cat #561610), SOX1-PE (BD Biosciences Cat #561592), PAX6 (Covance Cat #PRB-278P), VSX2 (Exalpha, Cat #X1180P), CRX (Abnova, Cat #H00001406-M02), OPSIN (MilliporeSigma, Cat #AB5407). Due to the lack of retinal differentiation resulting from BMP inhibition, expression of retina genes was examined at multiple time points in SB and SB plus dorsomorphin homolog 1 (SB+DMH1), which was a well-established dual-SMAD inhibition condition for neural conversion (Chambers, S. M. et al., 2009, Nat Biotechnol 27:275-280). […]
A general note: Flow cytometry measures light scatter and fluorescence of single cells or particles in a stream.

Where [4] appears, read: inhibitor for 6 days during neural induction, vs control, qPCR, FIG. 2b.
The mark [5] stands for this setting: SB day 0-5, then DMH1 from day 6, vs control.
Setting [6] is: inhibitor for 6 days during neural induction, qPCR, FIG. 2b.

Take `CC(C)Oc1ccc(-c2cnc3c(-c4ccnc5ccccc45)cnn3c2)cc1` [DMH1]: in experiment [1] (setting [4]), the “expression of neural genes including PAX6 and SOX1” value is listed as “efficiently induced”; the “expression of retinal lineage-specific markers RAX and VSX2” value is recorded as “did not show much change”. Besides, in experiment [2] (setting [5]), the GLI3 expression entry is listed as “downregulated”; the “MKI67 and NES expression levels in progenitor clusters” value is “much lower”; the “expression of EFTFs PAX6, LHX2, SIX3 and OTX2” value was “much lower or even absent”. Also, in experiment [2] (SB day 0-5, then DMH1 from day 6, FIG. 10b), the “expression of BMP target genes ID1/2/4” value was “much lower levels”.

As to `O=C(Nc1cccc2cccnc12)c1ccc(N2C(=O)[C@@H]3[C@H](C2=O)[C@@H]2C=C[C@H]3C2)cc1` [IWR1], the “effect on retinal differentiation” value in experiment [1] (setting [6]) was “did not have much effect”.

Regarding `NC(=O)c1ccc(-c2nc(-c3ccc4c(c3)OCO4)c(-c3ccccn3)[nH]2)cc1` [SB], the “expression of retinal lineage-specific markers RAX and VSX2” value in experiment [1] (setting [4]) was “highest expression level”. For the same molecule, the “expression of SOX1 (definitive neuroepithelial marker)” value in experiment [1] (setting [6]) was “low expression”. For the same molecule, the “expression pattern of SOX1 over time” value in experiment [1] (time course after day 6, SB condition vs BMP2 administration, FIG. 3c) is on record as “increased steadily”. Also, the “SOX1 and SOX2 double positive cells (definitive neuroepithelial cells)” value in experiment [3] is 14%.
